Assay results: patent US10414754B2, “Indolizine compounds, a process for their preparation and pharmaceutical compositions containing them” (LES LABORATOIRES SERVIER, priority 2013, dated 2019)
Structures can show the parent of a compound that is named as a salt.

How the values were obtained:
[1] = test system: RS4;11 leukaemia tumour line; experiment: In vitro cytotoxicity (MTT) on RS4;11; type: cell-based; conditions: Homo sapiens; RS4;11 cells, 48 hours exposure
Experimental: The cytotoxicity studies were carried out on the RS4;11 leukaemia tumour line.
The cells are distributed onto microplates and exposed to the test compounds for 48 hours.
The cell viability is then quantified by a colorimetric assay, the Microculture Tetrazolium Assay (Cancer Res., 1987, 47, 939-942).

Bcl-2 protein = biological target: T1, Bcl-2 protein (histag-Bcl-2, UniProtKB P10415) (Homo sapiens, UniProt P10415); experiment: Inhibition of Bcl-2 by the fluorescence polarisation technique; type: binding; conditions: fluorescence polarisation, 2 hours incubation; read-out: IC50 (nM) Bcl-2 FP
T1 construct: His tag
T1 sequence (P10415 whole entry): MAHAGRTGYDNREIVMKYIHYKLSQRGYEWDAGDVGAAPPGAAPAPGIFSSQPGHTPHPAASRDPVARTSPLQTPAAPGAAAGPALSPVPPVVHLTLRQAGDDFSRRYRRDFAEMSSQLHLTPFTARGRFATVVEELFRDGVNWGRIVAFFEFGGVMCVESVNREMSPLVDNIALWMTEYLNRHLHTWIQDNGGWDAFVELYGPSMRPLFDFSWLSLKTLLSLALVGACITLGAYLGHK
Experimental: The fluorescence polarisation tests were carried out on microplates (384 wells). The Bcl-2 protein, labelled (histag-Bcl-2 such that Bcl-2 corresponds to the UniProtKB® primary accession number: P10415), at a final concentration of 2.50×10^−8 M, is mixed with a fluorescent peptide (Fluorescein-[…]), at a final concentration of 1.00×10^−8M in a buffer solution (Hepes 10 mM, NaCl 150 mM, Tween20 0.05%, pH 7.4), in the presence or absence of increasing concentrations of test compounds. After incubation for 2 hours, the fluorescence polarisation is measured.

SMILES | IC50 (Bcl-2 protein) | IC50 [1]
O=C(c1cc(-c2cc(Cl)ccc2C(=O)N2Cc3ccccc3C[C@H]2CCN2CCOCC2)n2c1CCCC2)N(c1ccc(O)cc1)c1cccc(F)c1 [Example 27, 3-(5-Chloro-2-{[(3S)-3-[2-(morpholin-4-yl)ethyl]-3,4-dihydroisoquinolin-2(1H)-yl]carbonyl}phenyl)-N-(3-fluorophenyl)-N-(4-hydroxyphenyl)-5,6,7,8-tetrahydroindolizine-1-carboxamide hydrochloride] | 7.7 nM | 44.1 nM
Cc1ccc(C(=O)N2Cc3ccccc3C[C@H]2CCN2CCOCC2)c(-c2cc(C(=O)N(c3ccccc3)c3ccc(O)cc3)c3n2CCCC3)c1 [Example 19, N-(4-Hydroxyphenyl)-3-(5-methyl-2-{[(3S)-3-[2-(morpholin-4-yl)ethyl]-3,4-dihydroisoquinolin-2(1H)-yl]carbonyl}phenyl)-N-phenyl-5,6,7,8-tetrahydro-indolizine-1-carboxamide hydrochloride] | 8 nM | 235 nM
C[C@@H]1Cc2ccccc2CN1C(=O)c1cc2c(cc1-c1cc(C(=O)N(c3ccc(O)cc3)c3cnc4ncnn4c3)c3ccccn13)OCO2 [Example 66, N-(4-Hydroxyphenyl)-3-(6-{[(3R)-3-methyl-3,4-dihydroisoquinolin-2(1H)-yl]carbonyl}-1,3-benzodioxol-5-yl)-N-([1,2,4]triazolo[1,5-a]pyrimidin-6-yl)-indolizine-1-carboxamide] | 4.7 nM | 42 nM
C[C@@H]1Cc2ccccc2CN1C(=O)c1ccc(Cl)cc1-c1cc(C(=O)N(c2ccc(O)cc2)c2ccc3c(cnn3C)c2)c2n1CCNC2 [Example 12, 6-(5-Chloro-2-{[(3R)-3-methyl-3,4-dihydroisoquinolin-2(1H)-yl]-carbonyl}phenyl)-N-(4-hydroxyphenyl)-N-(1-methyl-1H-indazol-5-yl)-1,2,3,4-tetrahydropyrrolo[1,2-a]pyrazine-8-carboxamide hydrochloride] | 10.4 nM | 116 nM
O=C(c1cc(-c2cc3c(cc2C(=O)N2Cc4ccccc4C[C@H]2CCN2CCOCC2)OCO3)n2cccnc12)N(c1ccccc1)c1ccc(O)cc1 [Example 22, N-(4-Hydroxyphenyl)-6-(6-{[(3S)-3-[2-(morpholin-4-yl)ethyl]-3,4-dihydroisoquinolin-2(1H)-yl]carbonyl}-1,3-benzodioxol-5-yl)-N-phenylpyrrolo[1,2-a]-pyrimidine-8-carboxamide hydrochloride] | 12.9 nM | 263 nM
C[C@@H]1Cc2ccccc2CN1C(=O)c1ccc(F)cc1-c1cc(C(=O)N(c2ccncc2)c2ccc(O)cc2)c2n1CCCC2 [Example 64, 3-(5-Fluoro-2-{[(3R)-3-methyl-3,4-dihydroisoquinolin-2(1H)-yl]-carbonyl}phenyl)-N-(4-hydroxyphenyl)-N-(pyridin-4-yl)-5,6,7,8-tetrahydroindolizine-1-carboxamide] | 7.8 nM | 282 nM
C[C@@H]1Cc2ccccc2CN1C(=O)c1cc2c(cc1-c1cc(C(=O)N(c3ccc(O)cc3)c3ccncc3F)c3ccccn13)OCO2 [Example 46, N-(3-Fluoropyridin-4-yl)-N-(4-hydroxyphenyl)-3-(6-{[(3R)-3-methyl-3,4-dihydroisoquinolin-2(1H)-yl]carbonyl}-1,3-benzodioxol-5-yl)indolizine-1-carboxamide hydrochloride] | 4.1 nM | 27.9 nM
C[C@@H]1Cc2ccccc2CN1C(=O)c1cc2c(cc1-c1cc(C(=O)N(c3ccc(O)cc3)c3ccc(CN4CCCC(F)(F)C4)cc3)c3ccccn13)OCO2 [Example 30, N-{4-[(3,3-Difluoropiperidin-1-yl)methyl]phenyl}-N-(4-hydroxyphenyl)-3-(6-{[(3R)-3-methyl-3,4-dihydroisoquinolin-2(1H)-yl]carbonyl}-1,3-benzodioxol-5-yl)indolizine-1-carboxamide hydrochloride] | 10.4 nM | 52.3 nM
C[C@@H]1Cc2ccccc2CN1C(=O)c1cc2c(cc1-c1cc(C(=O)N(c3ccc(O)cc3)c3ccc4c(ccn4C)c3)c3n1CCN(C)C3)OCCO2 [Example 6, N-(4-Hydroxyphenyl)-2-methyl-6-(7-{[(3R)-3-methyl-3,4-dihydroiso-quinolin-2(1H)-yl]carbonyl}-2,3-dihydro-1,4-benzodioxin-6-yl)-N-(1-methyl-1H-indol-5-yl)-1,2,3,4-tetrahydropyrrolo[1,2-a]pyrazine-8-carboxamide hydrochloride] | 60.3 nM | 161 nM
C[C@@H]1Cc2ccccc2CN1C(=O)c1ccc(Cl)cc1-c1cc(C(=O)N(c2ccncc2)c2ccc(O)cc2)c2ccccn12 [Example 49, 3-(5-Chloro-2-{[(3R)-3-methyl-3,4-dihydroisoquinolin-2(1H)-yl]-carbonyl}phenyl)-N-(4-hydroxyphenyl)-N-(pyridin-4-yl)indolizine-1-carboxamide hydrochloride] | 3.7 nM | 84.7 nM
COc1ccc(C(=O)N2Cc3ccccc3C[C@H]2CCN2CCOCC2)c(-c2cc(C(=O)N(c3ccccc3)c3ccc(O)cc3)c3n2CCCC3)c1 [Example 28, N-(4-Hydroxyphenyl)-3-(5-methoxy-2-{[(3S)-3-[2-(morpholin-4-yl)ethyl]-3,4-dihydroisoquinolin-2(1H)-yl]carbonyl}phenyl)-N-phenyl-5,6,7,8-tetrahydro-indolizine-1-carboxamide hydrochloride] | 8.8 nM | 112 nM
COc1ccc(-c2cc(C(=O)N(c3ccccc3)c3ccc(O)cc3)c3n2CCCC3)c(C(=O)N2Cc3ccccc3C[C@H]2CCN2CCOCC2)c1 [Example 29, N-(4-Hydroxyphenyl)-3-(4-methoxy-2-{[(3S)-3-[2-(morpholin-4-yl)ethyl]-3,4-dihydroisoquinolin-2(1H)-yl]carbonyl}phenyl)-N-phenyl-5,6,7,8-tetrahydro-indolizine-1-carboxamide hydrochloride] | 19 nM | 163 nM
O=C(c1cc(-c2cc3c(cc2C(=O)N2Cc4ccccc4C[C@H]2CCN2CCOCC2)OCO3)n2c1CCCC2)N(c1ccccc1)c1cccc(F)c1 [Example 26, N-(3-Fluorophenyl)-3-(6-{[(3S)-3-[2-(morpholin-4-yl)ethyl]-3,4-dihydro-isoquinolin-2(1H)-yl]carbonyl}-1,3-benzodioxol-5-yl)-N-phenyl-5,6,7,8-tetrahydro-indolizine-1-carboxamide hydrochloride] | 16.6 nM | 300 nM
C[C@@H]1Cc2ccccc2CN1C(=O)c1cc2c(cc1-c1cc(C(=O)N(c3ccc(O)cc3)c3ccc4c(cnn4C)c3)c3n1CCNC3)OCO2 [Example 11, N-(4-Hydroxyphenyl)-6-(6-{[(3R)-3-methyl-3,4-dihydroisoquinolin-2(1,H)-yl]carbonyl}-1,3-benzodioxol-5-yl)-N-(1-methyl-1H-indazol-5-yl)-1,2,3,4-tetrahydropyrrolo[1,2-a]pyrazine-8-carboxamide hydrochloride] | 10.9 nM | 83.7 nM

Second part, led by results:

IC50 (Bcl-2 protein) | SMILES | IC50 [1]
83.6 nM | CCN(C(=O)c1cc(-c2cc3c(cc2C(=O)N2Cc4ccccc4C[C@H]2C)OCO3)n2c1CNCC2)c1ccc(O)cc1 [Example 73, N-Ethyl-N-(4-hydroxyphenyl)-6-(6-{[(3R)-3-methyl-3,4-dihydroiso-quinolin-2(1H)-yl]carbonyl}-1,3-benzodioxol-5-yl)-1,2,3,4-tetrahydropyrrolo[1,2-a]-pyrazine-8-carboxamide] | 1320 nM
17.9 nM | C[C@@H]1Cc2ccccc2CN1C(=O)c1cc2c(cc1-c1cc(C(=O)N(c3ccc(O)cc3)c3ccc4c(ccn4C)c3)c3n1CCCC3)OCO2 [Example 1, N-(4-Hydroxyphenyl)-3-(6-{[(3R)-3-methyl-3,4-dihydroisoquinolin-2(1H)-yl]carbonyl}-1,3-benzodioxol-5-yl)-N-(1-methyl-1H-indol-5-yl)-5,6,7,8-tetrahydro-indolizine-1-carboxamide] | 11.3 nM
67.7 nM | CCN(C(=O)c1cc(-c2cc3c(cc2C(=O)N2CCc4ccccc4C2)OCO3)n2c1CCCC2)c1ccc(O)cc1 [Example 75, 3-[6-(3,4-Dihydroisoquinolin-2(11)-ylcarbonyl)-1,3-benzodioxol-5-yl]-N-ethyl-N-(4-hydroxyphenyl)-5,6,7,8-tetrahydroindolizine-1-carboxamide] | 1360 nM
99.1 nM | CCCCN(C(=O)c1cc(-c2cc3c(cc2C(=O)N2Cc4ccccc4C[C@H]2C)OCO3)n2c1CNCC2)c1ccc(O)cc1 [Example 79, N-Butyl-N-(4-hydroxyphenyl)-6-(6-{[(3R)-3-methyl-3,4-dihydroiso-quinolin-2(1H)-yl]carbonyl}-1,3-benzodioxol-5-yl)-1,2,3,4-tetrahydropyrrolo[1,2-a]-pyrazine-8-carboxamide] | 1010 nM
12.1 nM | C[C@@H]1Cc2ccccc2CN1C(=O)c1cc2c(cc1-c1cc(C(=O)N(C)c3ccc(O)cc3)c3n1CCCC3)OCO2 [Example 81, N-(4-Hydroxyphenyl)-N-methyl-3-(6-{[(3R)-3-methyl-3,4-dihydroiso-quinolin-2(1H)-yl]carbonyl}-1,3-benzodioxol-5-yl)-5,6,7,8-tetrahydroindolizine-1-carboxamide] | 778 nM
4.6 nM | Cn1ccc2cc(N(C(=O)c3cc(-c4cc5c(cc4C(=O)N4Cc6ccccc6C[C@H]4CCCN4CCOCC4)OCO5)n4c3CCCC4)c3ccc(O)cc3)cnc21 [Example 69, N-(4-Hydroxyphenyl)-N-(1-methyl-1H-pyrrolo[2,3-b]pyridin-5-yl)-3-(6-{[(3R)-3-[3-(morpholin-4-yl)propyl]-3,4-dihydroisoquinolin-2(1H)-yl]carbonyl}-1,3-benzodioxol-5-yl)-5,6,7,8-tetrahydroindolizine-1-carboxamide hydrochloride] | 1.38 nM
